The conditions of series [1]: 298.2 K; 101.33 kPa; Liquid.
A short description of series [2]: refractive index (Na D-line) (dimensionless). Particulars: 298.2 K; 101.33 kPa; Liquid; Standard Abbe refractometry.

The structures appear in SMILES notation. Numbers after ± are expanded uncertainties.

On to `CCCOC(C)=O` [propyl ethanoate], for which, in series [1], the mass density worked out at 882.5 ± 0.4 kg/m3. Further, the refractive index in series [2] amounted to 1.3828 ± 0.0007.
The corresponding values for `CCCO` [propan-1-ol] are 799.7 ± 0.5 kg/m3 and 1.3839 ± 0.0007.

Values taken from the NIST ThermoML archive (doi:10.1016/j.fluid.2006.07.016).
